30 molecules from patent publication US20240059691A1 (KALVISTA PHARMACEUTICALS LIMITED, priority 2020, published 2024) can be followed below.

One assay has as its target Human Factor XIIa (Homo sapiens (Human), UniProt P00748). The experiment in a line: Determination of FXIIa inhibition (fluorogenic substrate H-DPro-Phe-Arg-AFC, IC50 assay). In kind it is biochemical. The settings on record: substrate H-DPro-Phe-Arg-AFC at Km, 25° C.; class scale A-G. The gist of the method: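 IC50 derived from % remaining activity, taken as the linear fluorescence rate over a 5 min read at 25° C. Substrate H-DPro-Phe-Arg-AFC was used at its Km (Michaelis-Menten) with human FXIIa and serial compound dilutions, 25° C.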

Another assay concerns the target Plasma Kallikrein (Homo sapiens (Human), UniProt P03952). The experiment in a line: Determination of related protease inhibition: Plasma Kallikrein (fluorogenic substrate at Km). In kind it is biochemical. The settings on record: 25° C., read-out: IC50 (human PKal). The gist of the method: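 Fluorescence release from a Km-level fluorogenic substrate, read for 5 min at 25 °C, gave the linear rate per minute for each inhibitor concentration. Rates were converted to % of uninhibited human enzyme activity; IC50 = inhibitor concentration producing 50% inhibition.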

Some results are limits rather than exact numbers.

Sequence of Human Factor XIIa (P00748 373-615): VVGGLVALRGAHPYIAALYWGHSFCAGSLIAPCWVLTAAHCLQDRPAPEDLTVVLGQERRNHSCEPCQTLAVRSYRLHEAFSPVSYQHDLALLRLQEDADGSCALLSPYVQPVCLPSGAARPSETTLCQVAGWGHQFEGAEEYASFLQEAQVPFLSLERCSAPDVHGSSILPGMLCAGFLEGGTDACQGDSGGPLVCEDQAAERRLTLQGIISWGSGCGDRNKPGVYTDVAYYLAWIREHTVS
Sequence of Plasma Kallikrein (P03952 391-638): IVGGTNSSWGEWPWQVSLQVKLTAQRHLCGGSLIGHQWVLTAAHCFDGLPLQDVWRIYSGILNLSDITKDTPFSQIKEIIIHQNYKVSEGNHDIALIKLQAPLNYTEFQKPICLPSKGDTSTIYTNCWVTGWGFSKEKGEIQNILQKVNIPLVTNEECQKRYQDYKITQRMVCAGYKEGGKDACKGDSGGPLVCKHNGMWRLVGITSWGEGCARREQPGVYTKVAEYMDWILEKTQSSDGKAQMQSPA
Sequence of Plasma Kallikrein (P03952 20-390 partner): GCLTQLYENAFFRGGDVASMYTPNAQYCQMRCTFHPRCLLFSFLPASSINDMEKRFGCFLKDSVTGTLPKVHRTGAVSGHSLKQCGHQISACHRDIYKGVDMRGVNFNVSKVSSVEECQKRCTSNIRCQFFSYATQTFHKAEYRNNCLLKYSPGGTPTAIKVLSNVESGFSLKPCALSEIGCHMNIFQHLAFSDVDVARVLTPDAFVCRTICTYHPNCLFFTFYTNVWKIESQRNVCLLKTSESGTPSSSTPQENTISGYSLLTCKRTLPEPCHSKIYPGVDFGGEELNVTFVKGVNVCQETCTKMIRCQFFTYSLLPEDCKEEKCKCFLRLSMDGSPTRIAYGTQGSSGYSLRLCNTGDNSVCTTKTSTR

For the molecule `Nc1ncc(Cl)c2cc(NCc3ccnc(NCC4CCn5ccnc5C4)c3)ccc12` (stereo not drawn) [Example 4303, 4-chloro-6-N-{[2-({5H,6H,7H,8H-imidazo[1,2-a]pyridin-7-ylmethyl}amino)pyridin-4-yl]methyl}isoquinoline-1,6-diamine], the half-inhibitory concentration (IC50) (commonly the concentration at which inhibition is half-maximal) on Human Factor XIIa was 0.1 to 0.3 µM; at Plasma Kallikrein, above 40 µM.

On to `Cn1c(COc2cc(CNc3cccc4c(N)nccc34)ccn2)nnc1C1CC1` [Example 4468, N5-((2-((5-cyclopropyl-4-methyl-4H-1,2,4-triazol-3-yl)methoxy)pyridin-4-yl)methyl)isoquinoline-1,5-diamine], for which the half-maximal inhibitory concentration (IC50) at Human Factor XIIa was 1 to 3 µM; at Plasma Kallikrein it was above 40 µM.

Consider `Nc1ncc(Cl)c2cc(NCc3ccc(NCc4nccn4C(F)F)nc3)ccc12` [Example 1185], for which the values for the 50% inhibitory concentration (IC50) against Human Factor XIIa and on Plasma Kallikrein were 10 to 40 µM and above 40 µM, respectively.

Regarding `Nc1nccc2c(NCc3ccc(N4CCn5ncc(O)c5C4)nc3)cccc12` [Example 1312, 5-(5-(((1-aminoisoquinolin-5-yl)amino)methyl)pyridin-2-yl)-4,5,6,7-tetrahydropyrazolo[1,5-a]pyrazin-3-ol], the results for the concentration for half-maximal inhibition (IC50) against Human Factor XIIa and at Plasma Kallikrein were 3 to 10 µM and above 40 µM, respectively.

For `Cc1cn2c(n1)CC(COc1cc(CNc3ccc4c(N)ncc(Cl)c4c3)ccn1)CC2` (stereo not drawn) [Example 4309, 4-chloro-6-N-{[2-({2-methyl-5H,6H,7H,8H-imidazo[1,2-a]pyridin-7-yl}methoxy)pyridin-4-yl]methyl}isoquinoline-1,6-diamine], the half-inhibitory concentration (IC50) against Human Factor XIIa is 0.1 to 0.3 µM; on Plasma Kallikrein, above 4 µM.

For the molecule `Nc1ncc(Cl)c2cc(NCc3ccnc(OCC4CCn5ccnc5C4)c3)ccc12` (single isomer, unassigned) [Example 4439, (R*)-4-chloro-N6-((2-((5,6,7,8-tetrahydroimidazo[1,2-a]pyridin-7-yl)methoxy)pyridin-4-yl)methyl)isoquinoline-1,6-diamine], the concentration for half-maximal inhibition (IC50) on Human Factor XIIa fell in the range of 0.1 to 0.3 µM; at Plasma Kallikrein, 10 to 40 µM.

As to `CN1CCC(OCc2ccc(CNc3ccc4cc(N)ncc4c3)cc2)CC1` [Example 2188, 7-N-[(4-{[(1-methylpiperidin-4-yl)oxy]methyl}phenyl)methyl]isoquinoline-3,7-diamine], the concentration for half-maximal inhibition (IC50) against Human Factor XIIa and on Plasma Kallikrein was 10 to 40 µM throughout.

In the case of `CN1CCC(COc2cc(CNc3cnc4c(N)nccc4c3)ccn2)CC1` [Example 4293, 3-N-({2-[(1-methylpiperidin-4-yl)methoxy]pyridin-4-yl}methyl)-1,7-naphthyridine-3,8-diamine], the concentration for half-maximal inhibition (IC50) against Human Factor XIIa was 0.3 to 1 µM; at Plasma Kallikrein, above 40 µM.

Consider `Nc1nccc2c(NCc3ccnc(OCC4CCn5ccnc5C4)c3)cccc12` (single isomer, unassigned) [Example 4430, (S*)-N5-((2-((5,6,7,8-tetrahydroimidazo[1,2-a]pyridin-7-yl)methoxy)pyridin-4-yl)methyl)isoquinoline-1,5-diamine], for which the half-inhibitory concentration (IC50) was 0.01 to 0.1 µM against Human Factor XIIa and above 4 µM on Plasma Kallikrein.

For `Cc1cc2c(NCc3ccc(OCC4CCN(C)CC4)nc3)ccnc2[nH]1` [Example 1249, 2-methyl-N-((6-((1-methylpiperidin-4-yl)methoxy)pyridin-3-yl)methyl)-1H-pyrrolo[2,3-b]pyridin-4-amine], the half-inhibitory concentration (IC50) at Human Factor XIIa was 0.3 to 1 µM; at Plasma Kallikrein it was above 40 µM.

In the case of `Nc1ncc(Cl)c2cc(NCc3ccc(OC4CCn5ccnc5C4)nc3)ccc12` (stereo not drawn) [Example 1050, 4-chloro-6-N-[(6-{5H,6H,7H,8H-imidazo[1,2-a]pyridin-7-yloxy}pyridin-3-yl)methyl]isoquinoline-1,6-diamine], the results for the IC50 on Human Factor XIIa and on Plasma Kallikrein were 1 to 3 µM and above 40 µM, respectively.

Consider `Nc1ncc(Cl)c2cc(NCc3ccnc(OCC4CCCn5ccnc54)c3)ccc12` (stereo not drawn) [Example 4443, 4-chloro-N6-((2-((5,6,7,8-tetrahydroimidazo[1,2-a]pyridin-8-yl)methoxy)pyridin-4-yl)methyl)isoquinoline-1,6-diamine], for which the IC50 on Human Factor XIIa is 0.1 to 0.3 µM; at Plasma Kallikrein, above 40 µM.

Consider `Nc1ncc(Cl)c2cc(NCc3ccc(N4CCn5ncc(O)c5C4)nc3)ccc12` [Example 1267, 5-(5-(((1-amino-4-chloroisoquinolin-6-yl)amino)methyl)pyridin-2-yl)-4,5,6,7-tetrahydropyrazolo[1,5-a]pyrazin-3-ol], for which the concentration for half-maximal inhibition (IC50) against Human Factor XIIa is 3 to 10 µM; on Plasma Kallikrein, above 40 µM.

Consider `CN1CCC(CNc2ccc(CNc3nccc4[nH]ccc34)cn2)CC1` [Example 1223, N-((6-(((1-methylpiperidin-4-yl)methyl)amino)pyridin-3-yl)methyl)-1H-pyrrolo[3,2-c]pyridin-4-amine], for which the IC50 is 40 to 100 µM at Human Factor XIIa and above 40 µM on Plasma Kallikrein.

For `COC(=O)c1c[nH]c2nccc(NCc3ccc(NCC4CCN(C)CC4)nc3)c12` [Example 1248, methyl 4-(((6-(((1-methylpiperidin-4-yl)methyl)amino)pyridin-3-yl)methyl)amino)-1H-pyrrolo[2,3-b]pyridine-3-carboxylate], the IC50 was 10 to 40 µM against Human Factor XIIa and above 20 µM at Plasma Kallikrein.

Turning to `CN1CCC(OCc2ccc(CNc3ccc4nc(N)ccc4c3)cc2)CC1` [Example 2187, N6-(4-(((1-methylpiperidin-4-yl)oxy)methyl)benzyl)quinoline-2,6-diamine], the IC50 on Human Factor XIIa is 3 to 10 µM; on Plasma Kallikrein, 10 to 40 µM.

As for `CN1CCN(c2cc(CNc3cccc4c(N)nccc34)ccn2)CC1` [Example 4426, 5-N-{[2-(4-methylpiperazin-1-yl)pyridin-4-yl]methyl}isoquinoline-1,5-diamine], the half-inhibitory concentration (IC50) was 10 to 40 µM at Human Factor XIIa and above 40 µM at Plasma Kallikrein.

For the molecule `Nc1ncc(Cl)c2cc(NCc3ccc(N4CCn5ccnc5C4)nc3)ccc12` [Example 1129, 4-chloro-6-N-[(6-{5H,6H,8H-imidazo[1,2-a]pyrazin-7-yl}pyridin-3-yl)methyl]isoquinoline-1,6-diamine], the values for the 50% inhibitory concentration (IC50) on Human Factor XIIa and at Plasma Kallikrein were 3 to 10 µM and above 40 µM, respectively.

Turning to `CC(C)(O)[C@H]1CCN(c2ccc(CNc3ccc4c(N)ncc(Cl)c4c3)cn2)C1` [Example 1176, 2-[(3S)-1-(5-{[(1-amino-4-chloroisoquinolin-6-yl)amino]methyl}pyridin-2-yl)pyrrolidin-3-yl]propan-2-ol], the IC50 at Human Factor XIIa is 3 to 10 µM; on Plasma Kallikrein, above 40 µM.

With `Cc1n[nH]c2c1CCC2Nc1cc(CNc2ccc3c(N)ncc(Cl)c3c2)ccn1` (stereo not drawn) [Example 4440, 4-chloro-N6-((2-((3-methyl-1,4,5,6-tetrahydrocyclopenta[c]pyrazol-6-yl)amino)pyridin-4-yl)methyl)isoquinoline-1,6-diamine], the 50% inhibitory concentration (IC50) against Human Factor XIIa was 10 to 40 µM; on Plasma Kallikrein it was above 40 µM.

For the molecule `Cc1cc2c(NCc3ccc(NCC4CCN(C)CC4)nc3)cncc2[nH]1` [Example 1232, 2-Methyl-N-((6-(((1-methylpiperidin-4-yl)methyl)amino)pyridin-3-yl)methyl)-1H-pyrrolo[2,3-c]pyridin-4-amine], the values for the IC50 against Human Factor XIIa and at Plasma Kallikrein were 0.3 to 1 µM and 10 to 40 µM, respectively.

Take `CN1CCC(CNc2ccc(CNc3ccc4c(N)ncc(Cl)c4c3)cn2)CC1` [Example 1193, 4-chloro-N6-((6-(((1-methylpiperidin-4-yl)methyl)amino)pyridin-3-yl)methyl)isoquinoline-1,6-diamine]: the concentration for half-maximal inhibition (IC50) at Human Factor XIIa fell in the range of 0.1 to 0.3 µM; at Plasma Kallikrein it was 3 to 10 µM.

In the case of `COc1cc(NCc2ccnc(OCC3CCN(C)CC3)c2)cc2ccncc12` [Example 4462, 8-methoxy-N-((2-((1-methylpiperidin-4-yl)methoxy)pyridin-4-yl)methyl)isoquinolin-6-amine], the half-inhibitory concentration (IC50) on Human Factor XIIa is 3 to 10 µM; at Plasma Kallikrein, above 100 µM.

As for `CN1CCC(CNc2ccc(CNc3cc(C(=O)O)nc4[nH]ccc34)cn2)CC1` [Example 1263, 4-(((6-(((1-methylpiperidin-4-yl)methyl)amino)pyridin-3-yl)methyl)amino)-1H-pyrrolo [2,3-b]pyridine-6-carboxylic acid], the results for the concentration for half-maximal inhibition (IC50) against Human Factor XIIa and on Plasma Kallikrein were 10 to 40 µM and above 40 µM, respectively.

In the case of `COc1ccc(NCc2ccnc(OCC3CCN(C)CC3)c2)c2ccnc(N)c12` [Example 4470, 8-methoxy-N5-((2-((1-methylpiperidin-4-yl)methoxy)pyridin-4-yl)methyl)isoquinoline-1,5-diamine], the IC50 at Human Factor XIIa is 10 to 40 µM; on Plasma Kallikrein, above 40 µM.

With `Nc1nccc2c(NCc3ccc(OC4CCn5ccnc5C4)nc3)cccc12` (stereo not drawn) [Example 1049, N5-[[6-(5,6,7,8-tetrahydroimidazo[1,2-a]pyridin-7-yloxy)-3-pyridyl]methyl]isoquinoline-1,5-diamine], the half-maximal inhibitory concentration (IC50) at Human Factor XIIa is 0.3 to 1 µM; at Plasma Kallikrein, above 40 µM.

Turning to `Nc1ncc(Cl)c2cc(NCc3cnc(OCC4CCn5ccnc5C4)nc3)ccc12` (stereo not drawn) [Example 1052, 4-Chloro-N6-[[2-(5,6,7,8-tetrahydroimidazo[1,2-a]pyridin-7-ylmethoxy)pyrimidin-5-yl]methyl]isoquinoline-1,6-diamine], the concentration for half-maximal inhibition (IC50) against Human Factor XIIa is 0.3 to 1 µM; on Plasma Kallikrein it was above 40 µM.

`Cc1cc2c(NCc3ccc(NCC4CCN(C)CC4)nc3)ncnc2[nH]1` [Example 1254, 6-methyl-N-((6-(((1-methylpiperidin-4-yl)methyl)amino)pyridin-3-yl)methyl)-7H-pyrrolo[2,3-d]pyrimidin-4-amine]: the 50% inhibitory concentration (IC50) was 10 to 40 µM on Human Factor XIIa and above 40 µM at Plasma Kallikrein.

In the case of `Nc1ncc(Cl)c2cc(NCc3ccnc(OCC4CCn5cc(CO)nc5C4)c3)ccc12` (stereo not drawn) [Example 4449, (7-(((4-(((1-amino-4-chloroisoquinolin-6-yl)amino)methyl)pyridin-2-yl)oxy)methyl)-5,6,7,8-tetrahydroimidazo[1,2-a]pyridin-2-yl)methanol], the IC50 is 0.3 to 1 µM at Human Factor XIIa and above 40 µM on Plasma Kallikrein.

Turning to `Cc1cnc2[nH]c(Cl)cc2c1NCc1ccc(NCC2CCN(C)CC2)nc1` [Example 1255, 2-chloro-5-methyl-N-((6-(((1-methylpiperidin-4-yl)methyl)amino)pyridin-3-yl)methyl)-1H-pyrrolo[2,3-b]pyridin-4-amine], the half-inhibitory concentration (IC50) at Human Factor XIIa is 3 to 10 µM; on Plasma Kallikrein, above 40 µM.
